Measured values from US5221625A, “Cyclcic FR-900520 microbial biotransformation agent” (Merck & Co., Inc., priority 1992, dated 1993).

Key:
[1] = system: mouse T lymphocytes (splenic T-cells); experiment: T-cell proliferation assay (ionomycin plus PMA induced, tritiated thymidine uptake); assay type: cell-based, mouse (C57Bl/6)
Procedure: The principle of this assay is to measure the proliferation of mouse T lumphocytes stimulated with the combination of ionomycin plus PMA.
Cells were pelleted by centrifugation at 1500 rpm for 8 minutes. Contaminating red cells were removed by treating the pellet with ammonium chloride lysing buffer (GIBCO) for 2 minutes at 4° C. Cold medium was added and cells were again centrifuged at 1500 rpm for 8 minutes. T lumphocytes were then isolated by separation of the cell suspension on nylon wool columns as follows: Nylon wool columns were prepared by packing approximately 4 grams of washed and dried nylon wool into 20 ml plastic syringes. The columns were sterilized by autoclaving at 250° F. for 30 minutes. Nylon wool columns were wetted with warm (37° C.) culture medium and rinsed with the same medium. Washed spleen cells resuspended in warm medium were slowly applied to the nylon wool. The columns were then incubated in an upright position at 37° C. for 1 hours. […]
The cell suspension was immediately distributed into 96 well flat-bottom microculture plates (Costar) at 200 μl/well. […] Radioactivity of filter discs corresponding to individual wells was measured by standard liquid scintillation counting method (Betacounter). Mean counts per minute of replicate wells were calculated and the results expressed as percent inhibition of tritiated thymidine uptake (proliferation) as follows: [formula]

[2] = system: FK-506 immunosuppressive activity; experiment: antagonist activity versus the FK-506 immunosuppressive activity by the T-cell proliferation assay; assay type: cell-based; conditions: qualitative
[3] = reputed; vs cyclosporin; cited from earlier work

SMILES	reversal of inhibition of T-cell proliferation by IL2 ([1]; 50 units/ml recombinant IL2 added at initiation of culture)	inhibition of T-cell activation ([1]; ionomycin + PMA, qualitative)	antagonist activity versus FK-506 immunosuppressive activity [2]	effectiveness relative to cyclosporin [3] [times]
CC[C@@H]1C=C2COC1(O)C[C@H](O)[C@@H](C)[C@@H](/C(C)=C/[C@@H]1CC[C@@H](O)[C@H](OC)C1)OC(=O)[C@@H]1CCCCN1C(=O)C(=O)[C@]1(O)O[C@H]([C@@H](OC)C[C@@H](C)C2)[C@@H](OC)C[C@H]1C [Compound I]	reversed	positive inhibition of T-cell activation	antagonist pharmacological activity	–
C=CC[C@@H]1/C=C(\C)C[C@H](C)C[C@H](OC)[C@H]2O[C@@](O)(C(=O)C(=O)N3CCCC[C@H]3C(=O)O[C@H](/C(C)=C/[C@@H]3CC[C@@H](O)[C@H](OC)C3)[C@H](C)[C@@H](O)CC1=O)[C@H](C)C[C@@H]2OC [FR900506]	–	–	–	100
